Results: the supplement of paper PMC11061612

Assays:
Carboplatin = compound: C1CC(C1)(C(=O)[O-])C(=O)[O-].N.N.[Pt+2] [Carboplatin]; details: max 10 µM
Procedure, shortened: (§1)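 Cancer cell lines were seeded into 1536-well plates in 7.5 μl medium (DMEM/F12 or RPMI, 10% FBS), held 24 hours at 37°C and 5% CO2, and dosed for 72 hours with final DMSO typically 0.2%. Luminescence from CellTiter-Glo 2.0, scaled between blank-well and DMSO-well means, served as viability. The single-agent IC50 was obtained from dose-response fits with a non-linear mixed effects model, each fit being a two-parameter logistic curve.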

AZD5363 = compound: C1CN(CCC1(C(=O)N[C@@H](CCO)C2=CC=C(C=C2)Cl)N)C3=NC=NC4=C3C=CN4 [AZD5363]; details: max 10 µM
Procedure, shortened: as §1

AZD1775 = compound: C=CCn1c(=O)c2cnc(Nc3ccc(N4CCN(C)CC4)cc3)nc2n1-c1cccc(C(C)(C)O)n1 [AZD1775]; details: max 3 µM
Procedure, shortened: as §1

Paclitaxel = compound: CC(=O)O[C@H]1C(=O)[C@@]2(C)[C@H]([C@H](OC(=O)c3ccccc3)[C@]3(O)C[C@H](OC(=O)[C@H](O)[C@@H](NC(=O)c4ccccc4)c4ccccc4)C(C)=C1C3(C)C)[C@]1(OC(C)=O)CO[C@@H]1C[C@@H]2O [Paclitaxel]; details: max 3 µM
Procedure, shortened: as §1

Palbociclib = compound: CC(=O)c1c(C)c2cnc(Nc3ccc(N4CCNCC4)cn3)nc2n(C2CCCC2)c1=O [Palbociclib]; details: max 10 µM
Procedure, shortened: as §1

AZD1390 = compound: CC(C)n1c(=O)n(C)c2cnc3cc(F)c(-c4ccc(OCCCN5CCCCC5)nc4)cc3c21 [AZD1390]; details: max 0.3 µM
Procedure, shortened: as §1

Venetoclax = compound: CC1(C)CCC(CN2CCN(c3ccc(C(=O)NS(=O)(=O)c4ccc(NCC5CCOCC5)c([N+](=O)[O-])c4)c(Oc4cnc5[nH]ccc5c4)c3)CC2)=C(c2ccc(Cl)cc2)C1 [Venetoclax]; details: max 1 µM
Procedure, shortened: as §1

Dasatinib = compound: CC1=C(C(=CC=C1)Cl)NC(=O)C2=CN=C(S2)NC3=CC(=NC(=N3)C)N4CCN(CC4)CCO [Dasatinib]; details: max 2 µM
Procedure, shortened: as §1

SG3199 = compound: CC1=CN2[C@@H](C1)C=NC3=CC(=C(C=C3C2=O)OC)OCCCCCOC4=C(C=C5C(=C4)N=C[C@@H]6CC(=CN6C5=O)C)OC [SG3199]; details: max 0.001 µM
Procedure, shortened: as §1

AZD2811 = compound: CCN(CCO)CCCOc1ccc2c(Nc3cc(CC(=O)Nc4cccc(F)c4)[nH]n3)ncnc2c1 [AZD2811]; details: max 1 µM
Procedure, shortened: as §1

SN-38 = compound: CCc1c2c(nc3ccc(O)cc13)-c1cc3c(c(=O)n1C2)COC(=O)[C@]3(O)CC [SN-38]; details: max 0.3 µM
Procedure, shortened: as §1

AZD0156 = compound: CN(C)CCCOc1ccc(-c2ccc3ncc4c(c3c2)n(C2CCOCC2)c(=O)n4C)cn1 [AZD0156]; details: max 3 µM
Procedure, shortened: as §1

AZD4320 = compound: CN(CC[C@H](CSC1=CC=CC=C1)NC2=C(C=C(C=C2)S(=O)(=O)NC(=O)C3=CC=C(C=C3)N4CCC(CC4)[C@H](C5=CC=CC=C5C6=CC=C(C=C6)Cl)O)S(=O)(=O)C(F)(F)F)CCO [AZD4320]; details: max 1 µM
Procedure, shortened: as §1

Alisertib = compound: COc1cc(Nc2ncc3c(n2)-c2ccc(Cl)cc2C(c2c(F)cccc2OC)=NC3)ccc1C(=O)O [Alisertib]; details: max 10 µM
Procedure, shortened: as §1

Etoposide = compound: COc1cc([C@@H]2c3cc4c(cc3[C@@H](O[C@@H]3O[C@@H]5CO[C@@H](C)O[C@H]5[C@H](O)[C@H]3O)[C@H]3COC(=O)[C@H]23)OCO4)cc(OC)c1O [Etoposide]; details: max 10 µM
Procedure, shortened: as §1

Gefitinib = compound: COc1cc2ncnc(Nc3ccc(F)c(Cl)c3)c2cc1OCCCN1CCOCC1 [Gefitinib]; details: max 10 µM
Procedure, shortened: as §1

Prexasertib = compound: COc1cccc(OCCCN)c1-c1cc(Nc2cnc(C#N)cn2)n[nH]1 [Prexasertib]; details: max 1 µM
Procedure, shortened: as §1

Doxorubicin = compound: COc1cccc2c1C(=O)c1c(O)c3c(c(O)c1C2=O)C[C@@](O)(C(=O)CO)C[C@@H]3O[C@H]1C[C@H](N)[C@H](O)[C@H](C)O1 [Doxorubicin]; details: max 1 µM
Procedure, shortened: as §1

AZD5153 = compound: COc1nnc2ccc(N3CCC(c4ccc(OCCN5CCN(C)C(=O)[C@H]5C)cc4)CC3)nn12 [AZD5153]; details: max 1 µM
Procedure, shortened: as §1

Lapatinib = compound: CS(=O)(=O)CCNCc1ccc(-c2ccc3ncnc(Nc4ccc(OCc5cccc(F)c5)c(Cl)c4)c3c2)o1 [Lapatinib]; details: max 10 µM
Procedure, shortened: as §1

AZD8186 = compound: C[C@@H](Nc1cc(F)cc(F)c1)c1cc(C(=O)N(C)C)cc2c(=O)cc(N3CCOCC3)oc12 [AZD8186]; details: max 10 µM
Procedure, shortened: as §1

Crizotinib = compound: C[C@@H](Oc1cc(-c2cnn(C3CCNCC3)c2)cnc1N)c1c(Cl)ccc(F)c1Cl [Crizotinib]; details: max 10 µM
Procedure, shortened: as §1

Savolitinib = compound: C[C@@H](c1ccc2nccn2c1)n1nnc2ncc(-c3cnn(C)c3)nc21 [Savolitinib]; details: max 1 µM
Procedure, shortened: as §1

AZD6738 = compound: C[C@@H]1COCCN1C2=NC(=NC(=C2)C3(CC3)[S@](=N)(=O)C)C4=C5C=CNC5=NC=C4 [AZD6738]; details: max 10 µM
Procedure, shortened: as §1

AZD5991 = compound: Cc1c2c(nn1C)CSCc1cc(n(C)n1)CSc1cc(c3ccccc3c1)OCCCc1c(C(=O)O)n(C)c3c-2c(Cl)ccc13 [AZD5991]; details: max 1 µM
Procedure, shortened: as §1

AZD7648 = compound: Cc1cc2ncnn2cc1Nc1ncc2c(n1)n(C1CCOCC1)c(=O)n2C [AZD7648]; details: max 10 µM
Procedure, shortened: as §1

Taselisib = compound: Cc1nc(-c2cn3c(n2)-c2ccc(-c4cnn(C(C)(C)C(N)=O)c4)cc2OCC3)n(C(C)C)n1 [Taselisib]; details: max 10 µM
Procedure, shortened: as §1

Selumetinib = compound: Cn1cnc2c(F)c(Nc3ccc(Br)cc3Cl)c(C(=O)NOCCO)cc21 [Selumetinib]; details: max 10 µM
Procedure, shortened: as §1

SRA737 = compound: N#Cc1cnc(Nc2cc(NC[C@H]3CNCCO3)c(C(F)(F)F)cn2)cn1 [SRA737]; details: max 10 µM
Procedure, shortened: as §1

MK-2206 = compound: NC1(c2ccc(-c3nc4ccn5c(=O)[nH]nc5c4cc3-c3ccccc3)cc2)CCC1 [MK-2206]; details: max 10 µM
Procedure, shortened: as §1

Gemcitabine = compound: Nc1ccn([C@@H]2O[C@H](CO)[C@@H](O)C2(F)F)c(=O)n1 [Gemcitabine]; details: max 0.3 µM
Procedure, shortened: as §1

[1] = compound: O=C(Nc1ccc2[nH]nc(-c3ccncc3)c2c1)[C@@H]1CCN(CC(=O)N2CCN(c3ccc(-c4ncccn4)cc3)CC2)C1; details: max 5 µM
Procedure, shortened: as §1

Olaparib = compound: O=C(c1cc(Cc2n[nH]c(=O)c3ccccc23)ccc1F)N1CCN(C(=O)C2CC2)CC1 [Olaparib]; details: max 10 µM
Procedure, shortened: as §1

5-Fluorouracil = compound: O=c1[nH]cc(F)c(=O)[nH]1 [5-Fluorouracil]; details: max 20 µM
Procedure, shortened: as §1

Trametinib = compound: CC(=O)Nc1cccc(-n2c(=O)n(C3CC3)c(=O)c3c(Nc4ccc(I)cc4F)n(C)c(=O)c(C)c32)c1 [Trametinib]; details: max 1 µM
Procedure, shortened: as §1

Cell Line | IC50, cell viability 72 h (Carboplatin) | IC50, cell viability 72 h (AZD5363) | IC50, cell viability 72 h (AZD1775) | IC50, cell viability 72 h (Paclitaxel) | IC50, cell viability 72 h (Palbociclib) | IC50, cell viability 72 h (AZD1390) | IC50, cell viability 72 h (Venetoclax) | IC50, cell viability 72 h (Dasatinib) | IC50, cell viability 72 h (SG3199) | IC50, cell viability 72 h (AZD2811) | IC50, cell viability 72 h (SN-38) | IC50, cell viability 72 h (AZD0156) | IC50, cell viability 72 h (AZD4320) | IC50, cell viability 72 h (Alisertib) | IC50, cell viability 72 h (Etoposide) | IC50, cell viability 72 h (Gefitinib) | IC50, cell viability 72 h (Prexasertib) | IC50, cell viability 72 h (Doxorubicin) | IC50, cell viability 72 h (AZD5153) | IC50, cell viability 72 h (Lapatinib) | IC50, cell viability 72 h (AZD8186) | IC50, cell viability 72 h (Crizotinib) | IC50, cell viability 72 h (Savolitinib) | IC50, cell viability 72 h (AZD6738) | IC50, cell viability 72 h (AZD5991) | IC50, cell viability 72 h (AZD7648) | IC50, cell viability 72 h (Taselisib) | IC50, cell viability 72 h (Selumetinib) | IC50, cell viability 72 h (SRA737) | IC50, cell viability 72 h (MK-2206) | IC50, cell viability 72 h (Gemcitabine) | IC50, cell viability 72 h [1] | IC50, cell viability 72 h (Olaparib) | IC50, cell viability 72 h (5-Fluorouracil) | IC50, cell viability 72 h (Trametinib)
FU97 (Gastric Carcinoma) | > 10000 nM | > 10000 nM | > 3000 nM | > 3000 nM | > 10000 nM | > 300 nM | > 1000 nM | > 2000 nM | > 1 nM | > 1000 nM | > 300 nM | > 3000 nM | > 1000 nM | > 10000 nM | > 10000 nM | > 10000 nM | > 1000 nM | > 1000 nM | 288 nM | > 10000 nM | > 10000 nM | > 10000 nM | > 1000 nM | > 10000 nM | > 1000 nM | > 10000 nM | > 10000 nM | > 10000 nM | > 10000 nM | > 10000 nM | > 300 nM | > 5000 nM | > 10000 nM | > 20000 nM | –
IGR-37 (Melanoma) | > 10000 nM | > 10000 nM | 846 nM | 86.5 nM | > 10000 nM | > 300 nM | > 1000 nM | > 2000 nM | > 1 nM | > 1000 nM | 26.2 nM | > 3000 nM | > 1000 nM | > 10000 nM | > 10000 nM | > 10000 nM | 12.9 nM | 746 nM | 846 nM | > 10000 nM | > 10000 nM | > 10000 nM | > 1000 nM | 5360 nM | > 1000 nM | > 10000 nM | 4360 nM | 339 nM | 3480 nM | > 10000 nM | 45.9 nM | 361 nM | > 10000 nM | > 20000 nM | 3.42 nM
KARPAS-422 (B-Cell Non-Hodgkin's Lymphoma) | > 10000 nM | 3560 nM | 768 nM | 957 nM | 3050 nM | > 300 nM | 644 nM | 1510 nM | > 1 nM | > 1000 nM | 17 nM | > 3000 nM | 230 nM | > 10000 nM | 3440 nM | > 10000 nM | 17.6 nM | 634 nM | 144 nM | > 10000 nM | 644 nM | > 10000 nM | > 1000 nM | 9320 nM | 206 nM | > 10000 nM | 4630 nM | > 10000 nM | > 10000 nM | 1070 nM | 92.2 nM | > 5000 nM | > 10000 nM | > 20000 nM | > 1000 nM
NCI-H64 (Small Cell Lung Carcinoma) | > 10000 nM | > 10000 nM | 236 nM | 527 nM | > 10000 nM | > 300 nM | > 1000 nM | > 2000 nM | > 1 nM | 597 nM | > 300 nM | > 3000 nM | 230 nM | 4900 nM | > 10000 nM | > 10000 nM | 19.6 nM | > 1000 nM | > 1000 nM | > 10000 nM | > 10000 nM | 5170 nM | > 1000 nM | 3170 nM | > 1000 nM | > 10000 nM | > 10000 nM | > 10000 nM | 3840 nM | > 10000 nM | > 300 nM | > 5000 nM | > 10000 nM | > 20000 nM | > 1000 nM
NCI-H1581 (Non-Small Cell Lung Carcinoma) | > 10000 nM | > 10000 nM | 1770 nM | 3.82 nM | > 10000 nM | > 300 nM | > 1000 nM | > 2000 nM | > 1 nM | > 1000 nM | 79.5 nM | > 3000 nM | > 1000 nM | 2060 nM | 5320 nM | > 10000 nM | > 1000 nM | > 1000 nM | > 1000 nM | > 10000 nM | > 10000 nM | > 10000 nM | > 1000 nM | > 10000 nM | 163 nM | > 10000 nM | > 10000 nM | > 10000 nM | > 10000 nM | > 10000 nM | 195 nM | 3230 nM | > 10000 nM | > 20000 nM | 545 nM
